From ChEMBL document CHEMBL1152842, “Synthesis, Raman, FT-IR, NMR spectroscopic data and antimicrobial activity of mixed aza-oxo-thia macrocyclic compounds” (2009)

How the values were obtained:
Assay type in all cases: functional
[1] = system: Hanseniaspora guilliermondii; experiment: Antifungal activity against Hanseniaspora guilliermondii DSM 3432 at 10 ug after 72 hrs by disk diffusion method; conditions: DSM 3432, 72 h, read-out: IZ
[2] = system: Kluyveromyces marxianus; experiment: Antifungal activity against Kluyveromyces fragilis NRRL 2415 at 10 ug after 72 hrs by disk diffusion method; conditions: NRRL 2415, 72 h, read-out: IZ
[3] = system: Rhodotorula mucilaginosa; experiment: Antifungal activity against Rhodotorula rubra DSM 70403 at 10 ug after 72 hrs by disk diffusion method; conditions: DSM 70403, 72 h, read-out: IZ
[4] = system: Candida albicans; experiment: Antifungal activity against Candida albicans ATCC 10231 at 10 ug after 72 hrs by disk diffusion method; conditions: ATCC 10231, 72 h, read-out: IZ
[5] = system: Debaryomyces hansenii; experiment: Antifungal activity against Debaryomyces hansenii DSM 70238 at 10 ug after 72 hrs by disk diffusion method; conditions: DSM 70238, 72 h, read-out: IZ
[6] = system: Candida albicans; experiment: Antifungal activity against Candida albicans ATCC 10231 at 1 ug after 72 hrs by disk diffusion method; conditions: ATCC 10231, 72 h, read-out: IZ
[7] = system: Hanseniaspora guilliermondii; experiment: Antifungal activity against Hanseniaspora guilliermondii DSM 3432 at 1 ug after 72 hrs by disk diffusion method; conditions: DSM 3432, 72 h, read-out: IZ
[8] = system: Kluyveromyces marxianus; experiment: Antifungal activity against Kluyveromyces fragilis NRRL 2415 at 1 ug after 72 hrs by disk diffusion method; conditions: NRRL 2415, 72 h, read-out: IZ
[9] = system: Debaryomyces hansenii; experiment: Antifungal activity against Debaryomyces hansenii DSM 70238 at 1 ug after 72 hrs by disk diffusion method; conditions: DSM 70238, 72 h, read-out: IZ
[10] = system: Rhodotorula mucilaginosa; experiment: Antifungal activity against Rhodotorula rubra DSM 70403 at 1 ug after 72 hrs by disk diffusion method; conditions: DSM 70403, 72 h, read-out: IZ

Compound	zone of inhibition at 10 µg/disc [1]	zone of inhibition at 10 µg/disc [2]	zone of inhibition at 10 µg/disc [3]	zone of inhibition at 10 µg/disc [4]	zone of inhibition at 10 µg/disc [5]	zone of inhibition at 1 µg/disc [6]	zone of inhibition at 1 µg/disc [7]	zone of inhibition at 1 µg/disc [8]	zone of inhibition at 1 µg/disc [9]	zone of inhibition at 1 µg/disc [10]
Clc1ccccc1C(c1ccccc1)(c1ccccc1)n1ccnc1 [CLOTRIMAZOLE]	22 mm	16 mm	15 mm	18 mm	18 mm	–	–	–	–	–
CC(=O)N1CCN(c2ccc(OCC3COC(Cn4ccnc4)(c4ccc(Cl)cc4Cl)O3)cc2)CC1 (stereo not given) [KETOCONAZOLE]	–	–	–	–	–	16 mm	24 mm	22 mm	14 mm	21 mm
